Where two headings read alike, the source gives them in different places. Square brackets hold non-standard residues; d marks the D form. Peptide text beside a SMILES is read from it.
Key:
[1] = test system: Acinetobacter johnsonii clinical strains; type: cell-based; conditions: Acinetobacter johnsonii clinical strain 1; microdilution, Muller Hinton broth-cation adjusted, 0.02% BSA, 0.2% acetic acid
In short: (§1)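 Antifungal testing uses potato dextrose broth; antibacterial testing uses Mueller Hinton broth. Cell density is set to 5.0×10^5 cfu/ml and incubation runs 20–24 h at 37° C. MIC is the lowest concentration, within 0.125–128 μg/ml, at which no growth is visible.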

[2] = test system: Pseudomonas aeruginosa clinical strains; type: cell-based; conditions: microdilution, Muller Hinton broth-cation adjusted, 0.02% BSA, 0.2% acetic acid
In short: as §1

[3] = test system: Escherichia coli clinical strains; type: cell-based; conditions: microdilution, Muller Hinton broth-cation adjusted, 0.02% BSA, 0.2% acetic acid
In short: as §1

[4] = test system: Klebsiella pneumoniae clinical strains; type: cell-based; conditions: microdilution, Muller Hinton broth-cation adjusted, 0.02% BSA, 0.2% acetic acid
In short: as §1

[5] = test system: Serratia marcescens clinical strains; type: cell-based; design: Minimum inhibitory concentration: unit: μg/ml; conditions: microdilution, Muller Hinton broth-cation adjusted, 0.02% BSA, 0.2% acetic acid
In short: as §1

[6] = test system: Enterobacter cloacae clinical strains; type: cell-based; design: Minimum inhibitory concentration: unit: μg/ml; conditions: microdilution, Muller Hinton broth-cation adjusted, 0.02% BSA, 0.2% acetic acid
In short: as §1

[7] = test system: Proteus mirabilis clinical strains; type: cell-based; design: Minimum inhibitory concentration: unit: μg/ml; conditions: microdilution, Muller Hinton broth-cation adjusted, 0.02% BSA, 0.2% acetic acid
In short: as §1

[8] = test system: Acinetobacter baumannii clinical strains; type: cell-based; design: Minimum inhibitory concentration: unit: μg/ml; conditions: microdilution, Muller Hinton broth-cation adjusted, 0.02% BSA, 0.2% acetic acid
In short: as §1

[9] = test system: Staphylococcus aureus clinical strains; type: cell-based; design: Minimum inhibitory concentration: unit: μg/ml; conditions: microdilution, Muller Hinton broth-cation adjusted, 0.02% BSA, 0.2% acetic acid
In short: as §1

[10] = test system: Streptococcus pneumoniae clinical strains; type: cell-based; design: Minimum inhibitory concentration: unit: μg/ml; conditions: microdilution, Muller Hinton broth-cation adjusted, 0.02% BSA, 0.2% acetic acid
In short: as §1

[11] = test system: C. glabrata clinical strains; test: MIC, clinical yeast strains; type: cell-based, Candida glabrata; design: unit: µg/ml
In short: as §1

[12] = test system: Candida albicans clinical strains; test: MIC, clinical yeast strains; type: cell-based; design: unit: μg/ml
In short: as §1

[13] = test system: C. quillermondiae clinical strains; test: MIC, clinical yeast strains; type: cell-based, Candida quillermondiae; design: unit: μg/ml; conditions: C. quillermondiae clinical yeast strain 1
In short: as §1

[14] = test system: C. parapsilosis clinical strains; test: MIC, clinical yeast strains; type: cell-based, Candida parapsilosis; design: unit: µg/ml
In short: as §1

[15] = Pseudomonas aeruginosa clinical strain 1
[16] = Pseudomonas aeruginosa clinical strain 2
[17] = Pseudomonas aeruginosa clinical strain 3
[18] = Pseudomonas aeruginosa clinical strain 4
[19] = Pseudomonas aeruginosa clinical strain 5
[20] = Escherichia coli clinical strain 1
[21] = Escherichia coli clinical strain 2
[22] = Escherichia coli clinical strain 3
[23] = Escherichia coli clinical strain 4
[24] = Escherichia coli clinical strain 5
[25] = Klebsiella pneumoniae clinical strain 1
[26] = Klebsiella pneumoniae clinical strain 2
[27] = Klebsiella pneumoniae clinical strain 3
[28] = Klebsiella pneumoniae clinical strain 4
[29] = Klebsiella pneumoniae clinical strain 5
[30] = Serratia marcescens clinical strain 1
[31] = Serratia marcescens clinical strain 2
[32] = Serratia marcescens clinical strain 3
[33] = Serratia marcescens clinical strain 4
[34] = Serratia marcescens clinical strain 5
[35] = Enterobacter cloacae clinical strain 1
[36] = Enterobacter cloacae clinical strain 2
[37] = Enterobacter cloacae clinical strain 3
[38] = Enterobacter cloacae clinical strain 4
[39] = Enterobacter cloacae clinical strain 5
[40] = Proteus mirabilis clinical strain 1
[41] = Proteus mirabilis clinical strain 2
[42] = Proteus mirabilis clinical strain 3
[43] = Proteus mirabilis clinical strain 4
[44] = Proteus mirabilis clinical strain 5
[45] = Acinetobacter baumannii clinical strain 1
[46] = Acinetobacter baumannii clinical strain 2
[47] = Acinetobacter baumannii clinical strain 3
[48] = Acinetobacter baumannii clinical strain 4
[49] = Acinetobacter baumannii clinical strain 5
[50] = Staphylococcus aureus clinical strain 1
[51] = Staphylococcus aureus clinical strain 2
[52] = Staphylococcus aureus clinical strain 3
[53] = Staphylococcus aureus clinical strain 4
[54] = Staphylococcus aureus clinical strain 5
[55] = Streptococcus pneumoniae clinical strain 1
[56] = Streptococcus pneumoniae clinical strain 2
[57] = Streptococcus pneumoniae clinical strain 3
[58] = Streptococcus pneumoniae clinical strain 4
[59] = Streptococcus pneumoniae clinical strain 5

Gentamicin [reference compound]
Minimum inhibitory concentration [1]: 0.25
Minimum inhibitory concentration [2, 15]: 1
Minimum inhibitory concentration [2, 16]: 0.5
Minimum inhibitory concentration [2, 17]: 0.5
Minimum inhibitory concentration [2, 18]: 0.5
Minimum inhibitory concentration [2, 19]: 0.25
Minimum inhibitory concentration [3, 20]: 0.5
Minimum inhibitory concentration [3, 21]: 0.5
Minimum inhibitory concentration [3, 22]: 1
Minimum inhibitory concentration [3, 23]: 1
Minimum inhibitory concentration [3, 24]: 1
Minimum inhibitory concentration [4, 25]: 2
Minimum inhibitory concentration [4, 26]: 0.25
Minimum inhibitory concentration [4, 27]: 2
Minimum inhibitory concentration [4, 28]: 2
Minimum inhibitory concentration [4, 29]: 4
Minimum inhibitory concentration [5, 30]: 1
Minimum inhibitory concentration [5, 31]: 2
Minimum inhibitory concentration [5, 32]: 1
Minimum inhibitory concentration [5, 33]: 1
Minimum inhibitory concentration [5, 34]: 1
Minimum inhibitory concentration [6, 35]: 0.25
Minimum inhibitory concentration [6, 36]: 0.25
Minimum inhibitory concentration [6, 37]: 0.25
Minimum inhibitory concentration [6, 38]: 0.25
Minimum inhibitory concentration [6, 39]: 0.25
Minimum inhibitory concentration [7, 40]: 2
Minimum inhibitory concentration [7, 41]: 2
Minimum inhibitory concentration [7, 42]: >128
Minimum inhibitory concentration [7, 43]: 8
Minimum inhibitory concentration [7, 44]: >128
Minimum inhibitory concentration [8, 45]: 0.5
Minimum inhibitory concentration [8, 46]: 0.25
Minimum inhibitory concentration [8, 47]: 0.5
Minimum inhibitory concentration [8, 48]: 0.5
Minimum inhibitory concentration [8, 49]: 0.25
Minimum inhibitory concentration [9, 50]: 0.5
Minimum inhibitory concentration [9, 51]: 0.5
Minimum inhibitory concentration [9, 52]: 0.5
Minimum inhibitory concentration [9, 53]: 0.5
Minimum inhibitory concentration [9, 54]: 0.5
Minimum inhibitory concentration [10, 55]: 2
Minimum inhibitory concentration [10, 56]: 2
Minimum inhibitory concentration [10, 57]: 2
Minimum inhibitory concentration [10, 58]: 2
Minimum inhibitory concentration [10, 59]: 1

CC[C@@H](C)[C@@H](NC(=O)[C@@H](CC(C)C)NC(=O)[C@@H](CCCNC(=N)N)NC(=O)[C@H](N)CCCNC(=N)N)C(=O)N[C@H](Cc1c[nH]c2ccccc12)C(=O)N[C@H](CCCNC(=N)N)C(=O)N[C@H](CCCNC(=N)N)C(=O)N[C@H](Cc1ccccc1)C(=O)N[C@H](CCCCN)C(=O)N[C@H](Cc1c[nH]c2ccccc12)C(=O)N[C@H](CC(C)C)C(=O)N[C@H](CCCNC(=N)N)C(=O)O [Chain204D] (H-[dR][dR][dL][dI][dW][dR][dR][dF][dK][dW][dL][dR]-OH)
Minimum inhibitory concentration ([11]; C. glabrata clinical yeast strain 1): 4
Minimum inhibitory concentration ([11]; C. glabrata clinical yeast strain 2): 8
Minimum inhibitory concentration ([11]; C. glabrata clinical yeast strain 3): 32
Minimum inhibitory concentration ([11]; C. glabrata clinical yeast strain 4): 32
Minimum inhibitory concentration ([12]; Candida albicans clinical yeast strain 1): 8
Minimum inhibitory concentration ([12]; Candida albicans clinical yeast strain 2): 8
Minimum inhibitory concentration ([12]; Candida albicans clinical yeast strain 3): 8
Minimum inhibitory concentration ([12]; Candida albicans clinical yeast strain 4): 8
Minimum inhibitory concentration ([12]; Candida albicans clinical yeast strain 5): 8
Minimum inhibitory concentration [2, 15]: 4
Minimum inhibitory concentration [2, 16]: 16
Minimum inhibitory concentration [2, 17]: 8
Minimum inhibitory concentration [2, 18]: 8
Minimum inhibitory concentration [2, 19]: 4
Minimum inhibitory concentration [3, 20]: 8
Minimum inhibitory concentration [3, 21]: 1
Minimum inhibitory concentration [3, 22]: 1
Minimum inhibitory concentration [3, 23]: 1
Minimum inhibitory concentration [3, 24]: 1
Minimum inhibitory concentration [4, 25]: 8
Minimum inhibitory concentration [4, 26]: 4
Minimum inhibitory concentration [4, 27]: 16
Minimum inhibitory concentration [4, 28]: 4
Minimum inhibitory concentration [4, 29]: 2
Minimum inhibitory concentration [13]: 4
Minimum inhibitory concentration [5, 30]: >128
Minimum inhibitory concentration [5, 31]: >128
Minimum inhibitory concentration [5, 32]: 128
Minimum inhibitory concentration [5, 33]: >128
Minimum inhibitory concentration [5, 34]: >128
Minimum inhibitory concentration [6, 35]: 4
Minimum inhibitory concentration [6, 36]: 8
Minimum inhibitory concentration [6, 37]: 4
Minimum inhibitory concentration [6, 38]: 8
Minimum inhibitory concentration [6, 39]: 2
Minimum inhibitory concentration [7, 40]: >128
Minimum inhibitory concentration [7, 41]: 32
Minimum inhibitory concentration [7, 42]: 64
Minimum inhibitory concentration [7, 43]: >128
Minimum inhibitory concentration [7, 44]: >128
Minimum inhibitory concentration [8, 45]: 4
Minimum inhibitory concentration [8, 46]: 4
Minimum inhibitory concentration [8, 47]: 4
Minimum inhibitory concentration [8, 48]: 4
Minimum inhibitory concentration [8, 49]: 4
Minimum inhibitory concentration [9, 50]: 1
Minimum inhibitory concentration [9, 51]: 2
Minimum inhibitory concentration [9, 52]: 2
Minimum inhibitory concentration [9, 53]: 1
Minimum inhibitory concentration [9, 54]: 1
Minimum inhibitory concentration [10, 55]: 4
Minimum inhibitory concentration [10, 56]: 4
Minimum inhibitory concentration [10, 57]: 4
Minimum inhibitory concentration [10, 58]: 4
Minimum inhibitory concentration [10, 59]: 4
Minimum inhibitory concentration ([14]; C. parapsilosis clinical yeast strain 1): 4
Minimum inhibitory concentration ([14]; C. parapsilosis clinical yeast strain 2): 4
Minimum inhibitory concentration ([14]; C. parapsilosis clinical yeast strain 3): 8
Minimum inhibitory concentration ([14]; C. parapsilosis clinical yeast strain 4): 8

Reference: patent US10457709B2, “Antimicrobial peptides, their variants and uses” (priority 2015, dated 2019)
